Patent publication US20260209297A1, “ANTIMICROBIAL PEPTIDES AND MODIFICATIONS THEREOF” (priority 2022, published 2026)

B1: PD97.1.1: SEQ ID NO: 608 with N-terminal alanine; Rubus chingii wild-type defensin, expressed in Pichia pastoris (protein, listed as Rubus chingii)
chain: GACPLVSKRSKTWSGFCGSSNNCNKQCRSWESAQHGACHNTYKTVLGVKVISGRACFCYFCKKHT
modifications: N-terminal alanine added
notes: Rubus chingii wild-type defensin, expressed in Pichia pastoris
B2: PD91.1.1: SEQ ID NO: 578 with N-terminal alanine; Setaria viridis wild-type defensin, expressed in Pichia pastoris (protein, listed as Setaria viridis)
chain: AYMCTTQNRFFHGRCVNNLNCASSCVHGRLGTGGHCATRKRSAADPGVDIDWVWNRRICVCVFQC
modifications: N-terminal alanine added
notes: Setaria viridis wild-type defensin, expressed in Pichia pastoris
B3: PD127.1.1: SEQ ID NO: 732 with N-terminal alanine; wild-type defensin-like protein, expressed in Pichia pastoris (protein, listed as Potentilla micrantha)
chain: GACPLVQKRSKTWSGFCGSSNNCDKQCRTWEKAKHGACHATGDLKGTPRLKLRSCHARRSKDH
modifications: N-terminal alanine added
notes: wild-type defensin-like protein, expressed in Pichia pastoris

System: Fusarium graminearum PH-1
Format: cell-based
Details: F. graminearum PH-1; Example 7

| Molecule | MIC against F. graminearum [µM] |
| --- | --- |
| PD87.1.1: SEQ ID NO: 560 with N-terminal alanine; Raphanus sativus wild-type defensin, expressed in Pichia pastoris (KLCQRPSGTWSGVCGNNNACKNQCIRLEKARHGSCNYVFPAHKCICYFPC; N-terminal alanine added; listed as Raphanus sativus) | 0.75 |
| PD95.1.1: SEQ ID NO: 598 with N-terminal alanine; Mimulus guttatus wild-type defensin, expressed in Pichia pastoris (RHCESPSHRFKGICVRKSNCAAICQTEGFSSGKCRGFRSRCVCIKHC; N-terminal alanine added; listed as Mimulus guttatus) | 0.75 |
| PD96.1.1: SEQ ID NO: 603 with N-terminal alanine; Thlaspi arvense wild-type defensin, expressed in Pichia pastoris (RMCESKSHEFKGFCTKWRICRDVCITEGFTDGGCHGVLRHCVCKKPCLLSN; N-terminal alanine added; Thlaspi arvense) | 0.75 |
| PD99.1.1: SEQ ID NO: 616 with N-terminal alanine; Theobroma cacao wild-type defensin, expressed in Pichia pastoris (KLCQKRSKTWTGPCIKTKNCDHQCRKWEKAQHGACHWQWPGFACFCYVNC; N-terminal alanine added; Theobroma cacao) | 0.75 |

Same assay, conditions: Fusarium graminearum PH-1; MIC Day 1; 96-well, resazurin viability

| Molecule | F. graminearum PH-1 MIC Day 1 [µM] |
| --- | --- |
| PD82.1.1: SEQ ID NO: 538 with N-terminal alanine; Pinus sylvestris wild-type defensin, expressed in Pichia pastoris (RTCLSKSHRFHGYCVRSSSCKEICQTERFLSGECRHTHLGNRRCFCEKPC; N-terminal alanine added; listed as Pinus sylvestris) | 1.5 |
| PD83.1.1: SEQ ID NO: 542 with N-terminal alanine; Eucalyptus grandis wild-type defensin, expressed in Pichia pastoris (RMCESQSHKFHGLCMSDRTCVVVCKEEDFDDGKCRGFRHRCFCRKPC; N-terminal alanine added; listed as Eucalyptus grandis) | >12 |
| PD84.1.1: SEQ ID NO: 546 with N-terminal alanine; Striga asiatica wild-type defensin, expressed in Pichia pastoris (KICEYKSERFWGVCLSDIKCADVCKDESFESGDCQGLRRRCMCYNHC; N-terminal alanine added; listed as Striga asiatica) | >12 |
| PD85.1.1: SEQ ID NO: 551 with N-terminal alanine; Panax ginseng wild-type defensin, expressed in Pichia pastoris (KLCEKASLTWSGKCGNTQNCDKQCQNWESAKHGACHKRPTWKCFCYSDC; N-terminal alanine added; Panax ginseng) | >12 |
| PD86.1.1: SEQ ID NO: 555 with N-terminal alanine; Eryanthe guttata wild-type defensin, expressed in Pichia pastoris (SLCETPSRYFNGICFSRRNCGAICEKEGFSSGRCKAFKCVCGKDC; N-terminal alanine added; listed as Eryanthe guttata) | 6 |
| PD87.1.1: SEQ ID NO: 560 with N-terminal alanine; Raphanus sativus wild-type defensin, expressed in Pichia pastoris (KLCQRPSGTWSGVCGNNNACKNQCIRLEKARHGSCNYVFPAHKCICYFPC; N-terminal alanine added; listed as Raphanus sativus) | 0.75 |
| PD88.1.1: SEQ ID NO: 565 with N-terminal alanine; Fraxinus excelsior wild-type defensin, expressed in Pichia pastoris (KHCAKLSKGWHGFCAPHKCSRYCIHHEGAYDGACLKHHHSKHIGCYCYYRHC; N-terminal alanine added; Fraxinus excelsior) | >12 |
| PD89.1.2: SEQ ID NO: 569 with N-terminal alanine; Crambe maritima wild-type defensin, expressed in Pichia pastoris (KLCRKPSGTWSGLCANSDSCRKQCINLEKAKDGSCKYKFPAHKCFCYY; N-terminal alanine added; listed as Crambe maritima) | 12 |
| PD92.1.1: SEQ ID NO: 583 with N-terminal alanine; Trifolium pratense wild-type defensin, expressed in Pichia pastoris (RKCESKRRWIYGNCLSDEKCASDCLVKGFLFGKCRGYDNRCYCKKPRC; N-terminal alanine added; Trifolium pratense) | 3 |
| PD93.1.1: SEQ ID NO: 588 with N-terminal alanine; Fragaria vesca wild-type defensin, expressed in Pichia pastoris (KICEVPSKTFKGLCVKDRNCVVRCHSEGYGNGKCSHVRRQCMCLKICD; N-terminal alanine added; listed as Fragaria vesca) | >12 |
| PD94.1.1: SEQ ID NO: 593 with N-terminal alanine; Solanum lycopersicum wild-type defensin, expressed in Pichia pastoris (KLCQYHSETFHGVCVTGNNCNRHCQRENFEGGRCHGIRHYRCVCYRTC; N-terminal alanine added; listed as Solanum lycopersicum) | >12 |
| PD95.1.1: SEQ ID NO: 598 with N-terminal alanine; Mimulus guttatus wild-type defensin, expressed in Pichia pastoris (RHCESPSHRFKGICVRKSNCAAICQTEGFSSGKCRGFRSRCVCIKHC; N-terminal alanine added; listed as Mimulus guttatus) | 0.75 |
| PD96.1.1: SEQ ID NO: 603 with N-terminal alanine; Thlaspi arvense wild-type defensin, expressed in Pichia pastoris (RMCESKSHEFKGFCTKWRICRDVCITEGFTDGGCHGVLRHCVCKKPCLLSN; N-terminal alanine added; Thlaspi arvense) | 0.75 |
| PD99.1.1: SEQ ID NO: 616 with N-terminal alanine; Theobroma cacao wild-type defensin, expressed in Pichia pastoris (KLCQKRSKTWTGPCIKTKNCDHQCRKWEKAQHGACHWQWPGFACFCYVNC; N-terminal alanine added; Theobroma cacao) | 0.75 |
| PD120.1.1: SEQ ID NO: 706 with N-terminal alanine; Setaria italica wild-type defensin, expressed in Pichia pastoris (DRCETHSRTYKGRCNNHNCWSICITEGNTGGFCKGTLLLKCMCTSEC; N-terminal alanine added; listed as Setaria italica) | 12 |
| PD121.1.1: SEQ ID NO: 711 with N-terminal alanine; Setaria italica wild-type defensin, expressed in Pichia pastoris (RHCLSQSHHFKGLCLSSSNCANVCRVERFPDGECQTTAGTRKCFCKRIC; N-terminal alanine added; listed as Setaria italica) | 1.5 |
| PD123.1.1: SEQ ID NO: 719 with N-terminal alanine; Striga asiatica wild-type defensin, expressed in Pichia pastoris (RKCESKSQQFKGLCFIKANCAAVCRTEGFHSGHCRGFRRRCYCTKHC; N-terminal alanine added; listed as Striga asiatica) | 6 |
| PD124.1.1: SEQ ID NO: 723 with N-terminal alanine; Rubus argutus wild-type defensin, expressed in Pichia pastoris (RICEVPSKTFIGLCFKDTNCIVRCRSEGYGYGKCSHFRRRCRCFKPCP; N-terminal alanine added; listed as Rubus argutus) | 2 |
| PD125.1.1: SEQ ID NO: 728 with N-terminal alanine; wild-type defensin-like protein, expressed in Pichia pastoris (VICPLESKRSKTWSGVCAQSKNCDKQCKTWERAKHGACHATYGKVLGVKACMHAGNK; N-terminal alanine added; listed as Prunus armeniaca) | 8 |
| PD126.1.1: SEQ ID NO: 730 with N-terminal alanine; wild-type defensin-like protein, expressed in Pichia pastoris (KLCERRSKTWTGWCAKTSHCNKQCKDWERVEHGACHGEFLEKPVSAISNAHCKISF; N-terminal alanine added; listed as Prunus armeniaca) | >12 |
| PD128.1.1: SEQ ID NO: 734 with N-terminal alanine; wild-type defensin-like protein, expressed in Pichia pastoris (RVCLRRSKTWTGFCGNTRGFDSQCKRWECALHGACHC; N-terminal alanine added; listed as Lepidium sativum) | >12 |
| B1 | 1.5 |
| B2 | >12 |
| B3 | >12 |
